Results published in ChEMBL document CHEMBL5042512 (Eur J Med Chem, 2022).
Activity calls are given as the source filed them. The calls are words filed in the database; no cut-off is given here.

What was measured:
[1] = test system: KYSE-450; assay: Induction of apoptosis in human KYSE-450 cells assessed as caspase-3 cleavage at 80 to 100 nM measured after 48 hrs by western blot analysis; type: functional, cell-based; settings: dose 80-100 nM
[2] = test system: KYSE-450; assay: Antiproliferative activity against human KYSE-450 cells assessed as cell growth inhibition measured after 48 hrs by CCK8 assay; type: functional, cell-based; settings: KYSE-450, 48 h
[3] = test system: KYSE-450; assay: Induction of cell cycle arrest in human KYSE-450 cells assessed as accumulation at G2/M phase at 100 nM measured after 48 hrs by flow cytometry analysis (reference value: 7.04333 %); type: functional
[4] = biological target: T1, Tubulin (Homo sapiens) (UniProt P68371+Q9H4B7+P0DPH7+P68366+Q13509+Q71U36+P04350+Q3ZCM7+P07437+P68363+Q9BQE3+Q6PEY2+Q13885+Q9BVA1+Q9BUF5); assay: Inhibition of tubulin polymerization in human KYSE-450 cells assessed as weakening of beta tubulin at 100 to 300 nM for 2 hrs by EBI alkylate competition assay; type: cell-based; settings: dose 100-300 nM
[5] = test system: KYSE-450; assay: Antiproliferative activity against human KYSE-450 cells assessed as inhibition of colony formation at 40 to 60 nM for 7 days by crystal violet staining based analysis; type: functional, cell-based; settings: dose 40-60 nM, time 7.0 day
[6] = biological target: T1, Tubulin (Homo sapiens); assay: Inhibition of tubulin polymerization in human KYSE-30 cells assessed as weakening of beta tubulin at 100 to 300 nM for 2 hrs by EBI alkylate competition assay; type: cell-based; settings: dose 100-300 nM
[7] = test system: KYSE-30; assay: Induction of mitochondrial membrane potential loss in human KYSE-30 cells assessed as downregulation of Bcl-2 protein at 80 to 100 nM measured after 48 hrs by western blot analysis; type: functional, cell-based; settings: dose 80-100 nM
[8] = biological target: T1, Tubulin (Homo sapiens); assay: Inhibition of tubulin polymerization in human KYSE-450 cells assessed as microtubule assembly at 0.1 uM measured after 48 hrs by immunofluorescence assay; type: cell-based
[9] = test system: KYSE-30; assay: Induction of mitochondrial membrane potential loss in human KYSE-30 cells assessed as upregulation of Bax protein at 80 to 100 nM measured after 48 hrs by western blot analysis; type: functional, cell-based; settings: dose 80-100 nM
[10] = test system: KYSE-30; assay: Induction of apoptosis in human KYSE-30 cells assessed as PARP cleavage at 80 to 100 nM measured after 48 hrs by western blot analysis; type: functional, cell-based; settings: dose 80-100 nM
[11] = test system: KYSE-30; assay: Up regulation of p-Histone H3 protein expression in human KYSE-30 cells at 80 to 100 nM for 48 hrs by western blot analysis; type: functional, cell-based; settings: dose 80-100 nM
[12] = test system: KYSE-450; assay: Induction of mitochondrial membrane potential loss in human KYSE-450 cells assessed as upregulation of NOXA protein at 80 to 100 nM measured after 48 hrs by western blot analysis; type: functional, cell-based; settings: dose 80-100 nM
[13] = test system: KYSE-450; assay: Induction of apoptosis in human KYSE-450 cells assessed as PARP cleavage at 80 to 100 nM measured after 48 hrs by western blot analysis; type: functional, cell-based; settings: dose 80-100 nM
[14] = test system: KYSE-450; assay: Induction of mitochondrial membrane potential loss in human KYSE-450 cells assessed as decrease in XIAP level at 80 to 100 nM measured after 48 hrs by western blot analysis; type: functional, cell-based; settings: dose 80-100 nM
[15] = test system: KYSE-30; assay: Induction of mitochondrial membrane potential loss in human KYSE-30 cells assessed as Bak expression at 80 to 100 nM measured after 48 hrs by western blot analysis; type: functional, cell-based; settings: dose 80-100 nM
[16] = test system: KYSE-30; assay: Induction of mitochondrial membrane potential loss in human KYSE-30 cells assessed as mitochondrial depolarization at 80 to 100 nM measured after 48 hrs by JCI staining based flow cytometry; type: functional, cell-based; settings: dose 80-100 nM
[17] = test system: KYSE-450; assay: Antiproliferative activity against human KYSE-450 cells assessed as cell viability measured after 48 hrs by CCK8 assay; type: functional, cell-based; settings: KYSE-450, 48 h
[18] = test system: KYSE-30; assay: Induction of cell cycle arrest in human KYSE-30 cells assessed as accumulation at G2/M phase at 100 nM measured after 48 hrs by flow cytometry analysis (reference value: 19.38 %); type: functional
[19] = test system: KYSE-450; assay: Induction of mitochondrial membrane potential loss in human KYSE-450 cells assessed as Bcl-xL expression at 80 to 100 nM measured after 48 hrs by western blot analysis; type: functional, cell-based; settings: dose 80-100 nM
[20] = test system: KYSE-450; assay: Induction of apoptosis in human KYSE-450 cells assessed as apoptotic cells at 100 nM measured after 48 hrs by annexin-V-FITC and PI staining based flow cytometry analysis (reference value: 8.1667 %); type: functional
[21] = test system: KYSE-450; assay: Induction of mitochondrial membrane potential loss in human KYSE-450 cells assessed as upregulation of Bax protein at 80 to 100 nM measured after 48 hrs by western blot analysis; type: functional, cell-based; settings: dose 80-100 nM
[22] = test system: KYSE-450; assay: Down regulation of p-wee1 protein expression in human KYSE-450 cells at 80 to 100 nM for 48 hrs by western blot analysis; type: functional, cell-based; settings: dose 80-100 nM
[23] = test system: KYSE-30; assay: Induction of mitochondrial membrane potential loss in human KYSE-30 cells assessed as decrease in XIAP level at 80 to 100 nM measured after 48 hrs by western blot analysis; type: functional, cell-based; settings: dose 80-100 nM
[24] = test system: KYSE-450; assay: Antiproliferative activity against human KYSE-450 cells assessed as cell viability measured up to 48 hrs by CCK8 assay; type: functional, cell-based; settings: time hrs <=48, TDE = time-dependent effect
[25] = test system: KYSE-450; assay: Induction of mitochondrial membrane potential loss in human KYSE-450 cells assessed as Bak expression at 80 to 100 nM measured after 48 hrs by western blot analysis; type: functional, cell-based; settings: dose 80-100 nM
[26] = test system: KYSE-30; assay: Induction of apoptosis in human KYSE-30 cells assessed as apoptotic cells at 100 nM measured after 48 hrs by annexin-V-FITC and PI staining based flow cytometry analysis (reference value: 8.1667 %); type: functional
[27] = test system: KYSE-30; assay: Antiproliferative activity against human KYSE-30 cells assessed as cell viability measured after 48 hrs by CCK8 assay; type: functional, cell-based; settings: KYSE-30, 48 h
[28] = test system: KYSE-30; assay: Induction of mitochondrial membrane potential loss in human KYSE-30 cells assessed as upregulation of NOXA protein at 80 to 100 nM measured after 48 hrs by western blot analysis; type: functional, cell-based; settings: dose 80-100 nM
[29] = test system: KYSE-30; assay: Down regulation of p-wee1 protein expression in human KYSE-30 cells at 80 to 100 nM for 48 hrs by western blot analysis; type: functional, cell-based; settings: dose 80-100 nM
[30] = test system: KYSE-30; assay: Antiproliferative activity against human KYSE-30 cells assessed as inhibition of colony formation at 40 to 60 nM for 7 days by crystal violet staining based analysis; type: functional, cell-based; settings: dose 40-60 nM, time 7.0 day
[31] = test system: MGC-803; assay: Antiproliferative activity against human MGC-803 cells assessed as cell growth inhibition measured after 48 hrs by CCK8 assay; type: functional, cell-based; settings: MGC-803, 48 h
[32] = test system: KYSE-450; assay: Up regulation of p-Histone H3 protein expression in human KYSE-450 cells at 80 to 100 nM for 48 hrs by western blot analysis; type: functional, cell-based; settings: dose 80-100 nM
[33] = test system: KYSE-450; assay: Induction of mitochondrial membrane potential loss in human KYSE-450 cells assessed as Mcl-1 expression at 80 to 100 nM measured after 48 hrs by western blot analysis; type: functional, cell-based; settings: dose 80-100 nM
[34] = test system: KYSE-450; assay: Induction of apoptosis in human KYSE-450 cells assessed as apoptotic cells at 80 nM measured after 48 hrs by annexin-V-FITC and PI staining based flow cytometry analysis (reference value: 8.1667 %); type: functional
[35] = test system: KYSE-30; assay: Induction of apoptosis in human KYSE-30 cells assessed as caspase-3 cleavage at 80 to 100 nM measured after 48 hrs by western blot analysis; type: functional, cell-based; settings: dose 80-100 nM

COc1ccc(CN(C(=O)CSC(=S)N2CCN(C(=O)OC(C)(C)C)CC2)c2cc(OC)c(OC)c(OC)c2)cc1O was tested, and the Activity [1] was “Active”, the IC50 [2] was 76 nM and the Activity [3] was 80.8933%. The inhibition [4] was “Active”, the inhibition [5] was “Active” and the inhibition [6] was “Active”. For the same molecule, the Activity [7] was “Dose-Dependent Effect”, the inhibition [8] was “Active” and the Activity [9] was “Dose-Dependent Effect”. For the same molecule, the Activity [10] was “Active”, the Activity [11] was “Dose-Dependent Effect” and the Activity [12] was “Dose-Dependent Effect”. For the same molecule, the Activity [13] was “Active”, the Activity [14] was “Dose-Dependent Effect” and the Activity [15] was “inactive”. For the same molecule, the Activity [16] was “Active”, the IC50 [17] was 76 nM and the Activity [18] was 76.9767%. For the same molecule, the Activity [19] was “inactive”, the Activity [20] was 57.3667% and the Activity [21] was “Dose-Dependent Effect”. For the same molecule, the Activity [22] was “Dose-Dependent Effect”, the Activity [23] was “Dose-Dependent Effect” and the inhibition [24] was “Tde”. For the same molecule, the Activity [25] was “inactive”, the Activity [26] was 38.633% and the IC50 [27] was 69 nM. The Activity [28] was “Dose-Dependent Effect”, the Activity [29] was “Dose-Dependent Effect” and the inhibition [30] was “Active”. For the same molecule, the IC50 [31] was 82 nM, the Activity [32] was “Dose-Dependent Effect” and the Activity [33] was “inactive”. For the same molecule, the Activity [34] was 34.0333% and the Activity [35] was “Active”.
